Where “and” joins values, the source holds several entries; their conditions need not be identical. Identical values can stand only once. Toxic doses and inconclusive results are not listed. Rule as the data show it: active = T/C of 150% or more; inactive = T/C below 125%.
System: L1210 leukemia ip in BDF1 mice, survival T/C
Assay: NCI In Vivo Anticancer Drug Screen. Data for tumor model L1210 Leukemia (intraperitoneal) in B6D2F1 (BDF1) mice
Settings: endpoint: mean survival time, higher = longer survival
In short: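 Antitumor effect is assessed in tumor-bearing animals. Survival in the compound arm is compared with a vehicle-dosed control arm and expressed as their quotient.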

[1] = dose: 100.0 mg/kg/injection, schedule: Q01DX009 (ip), vehicle: Klucel (hydroxypropylcellulose) (HPC)
[2] = dose: 200.0 mg/kg/injection, schedule: Q01DX009 (ip), vehicle: Klucel (hydroxypropylcellulose) (HPC)
[3] = dose: 400.0 mg/kg/injection, schedule: Q01DX009 (ip), vehicle: Klucel (hydroxypropylcellulose) (HPC)
[4] = dose: 50.0 mg/kg/injection, schedule: Q01DX001 (ip), vehicle: saline
[5] = dose: 100.0 mg/kg/injection, schedule: Q01DX001 (ip), vehicle: saline
[6] = dose: 200.0 mg/kg/injection, schedule: Q01DX001 (ip), vehicle: saline
[7] = dose: 400.0 mg/kg/injection, schedule: Q01DX001 (ip), vehicle: saline
[8] = dose: 25.0 mg/kg/injection, schedule: Q01DX009 (ip), vehicle: saline
[9] = dose: 25.0 mg/kg/injection, schedule: Q04DX003 (ip), vehicle: saline
[10] = dose: 50.0 mg/kg/injection, schedule: Q01DX009 (ip), vehicle: saline
[11] = dose: 50.0 mg/kg/injection, schedule: Q04DX003 (ip), vehicle: saline
[12] = dose: 100.0 mg/kg/injection, schedule: Q01DX009 (ip), vehicle: saline
[13] = dose: 100.0 mg/kg/injection, schedule: Q04DX003 (ip), vehicle: saline
[14] = dose: 200.0 mg/kg/injection, schedule: Q01DX009 (ip), vehicle: saline
[15] = dose: 100.0 mg/kg/injection, schedule: Q01DX009 (ip), vehicle: saline with Tween-80
[16] = dose: 400.0 mg/kg/injection, schedule: Q01DX009 (ip), vehicle: saline with Tween-80
[17] = dose: 100.0 mg/kg/injection, schedule: Q04DX002 (ip), vehicle: saline with Tween-80
[18] = dose: 200.0 mg/kg/injection, schedule: Q04DX002 (ip), vehicle: saline with Tween-80
[19] = dose: 400.0 mg/kg/injection, schedule: Q04DX002 (ip), vehicle: saline with Tween-80
[20] = dose: 100.0 mg/kg/injection, schedule: Q04DX003 (ip), vehicle: saline with Tween-80
[21] = dose: 200.0 mg/kg/injection, schedule: Q04DX003 (ip), vehicle: saline with Tween-80
[22] = dose: 400.0 mg/kg/injection, schedule: Q04DX003 (ip), vehicle: saline with Tween-80

Measured: T/C

COc1ccc(CCNC(=O)Cc2ccccc2[N+](=O)[O-])cc1OC
inactive: dose: 10.0 mg/kg/injection, schedule: Q01DX001 (ip), vehicle: carboxymethylcellulose (CMC) 100 % of control | dose: 20.0 mg/kg/injection, schedule: Q01DX001 (ip), vehicle: carboxymethylcellulose (CMC) 100 % of control | dose: 40.0 mg/kg/injection, schedule: Q01DX001 (ip), vehicle: carboxymethylcellulose (CMC) 96 % of control | dose: 80.0 mg/kg/injection, schedule: Q01DX001 (ip), vehicle: carboxymethylcellulose (CMC) 96 % of control

C=CCNC(=S)Nc1cccc(OC(=O)NC2CCCCC2)c1
inactive: [1] 103 % of control | [2] 105 % of control | [3] 97 % of control

CCC(C)(C(=O)NO)c1ccccc1 (configuration not stated)
inactive: dose: 100.0 mg/kg/injection, schedule: Q01DX001 (ip), vehicle: saline with Tween-80 110 % of control | dose: 200.0 mg/kg/injection, schedule: Q01DX001 (ip), vehicle: saline with Tween-80 101 % of control

COc1ccccc1CN1CCCN(Cc2ccccc2OC)C1c1ccccc1
inactive: [4] 101 % of control | [5] 109 % of control | [6] 90 % of control | [7] 90 % of control

CC1(C(Cl)(Cl)Cl)C=CC(=O)C(Cl)=C1 (configuration not stated)
inactive: [1] 100 % of control | [2] 103 % of control | [3] 97 % of control

CC1(C)N=C(N)N=C(N)N1c1cccc(OCCOc2ccccc2N)c1
inactive: dose: 25.0 mg/kg/injection, schedule: Q01DX001 (ip), vehicle: Klucel (hydroxypropylcellulose) (HPC) 101 % of control | dose: 50.0 mg/kg/injection, schedule: Q01DX001 (ip), vehicle: Klucel (hydroxypropylcellulose) (HPC) 101 % of control | dose: 100.0 mg/kg/injection, schedule: Q01DX001 (ip), vehicle: Klucel (hydroxypropylcellulose) (HPC) 98 % of control

CCN(C(=O)c1ccc(Cl)cc1Cl)c1ccccc1C
inactive: [1] 98 % of control | dose: 100.0 mg/kg/injection, schedule: Q04DX003 (ip), vehicle: Klucel (hydroxypropylcellulose) (HPC) 97 % of control | [2] 96 % of control | dose: 200.0 mg/kg/injection, schedule: Q04DX003 (ip), vehicle: Klucel (hydroxypropylcellulose) (HPC) 108 % of control | [3] 101 % of control | dose: 400.0 mg/kg/injection, schedule: Q04DX003 (ip), vehicle: Klucel (hydroxypropylcellulose) (HPC) 98 % of control

CN(C)Cc1c[nH]c2nccnc12
inactive: [8] 102 % of control | [9] 100 % of control | [10] 100 % of control | [11] 105 % of control | [12] 99 % of control and 102 % of control | [13] 100 % of control and 104 % of control | [14] 99 % of control

O=C(Nc1cccc(O)c1)Oc1cccc(Cl)c1
inactive: [15] 98 % of control | dose: 200.0 mg/kg/injection, schedule: Q01DX009 (ip), vehicle: saline with Tween-80 102 % of control | [16] 106 % of control

Cc1cn(CC(=O)c2c[nH]c3ccccc23)c(=O)[nH]c1=O
inactive: [17] 101 % of control | [18] 101 % of control | [19] 93 % of control

C1CC2C3CCC(C3)C2C1 (configuration not stated)
inactive: [20] 94 % of control | [21] 90 % of control | [22] 97 % of control

O=[N+]([O-])c1cccc2nc(N/N=C/c3ccccc3O)ccc12
inactive: dose: 25.0 mg/kg/injection, schedule: Q01DX009 (ip), vehicle: water 89 % of control | dose: 50.0 mg/kg/injection, schedule: Q01DX009 (ip), vehicle: water 94 % of control | dose: 200.0 mg/kg/injection, schedule: Q01DX009 (ip), vehicle: water 94 % of control | dose: 400.0 mg/kg/injection, schedule: Q01DX009 (ip), vehicle: water 93 % of control

CCOc1ccc2nc(/C=C/c3ccccc3)ccc2c1
inactive: dose: 200.0 mg/kg/injection, schedule: Q01DX001 (ip), vehicle: carboxymethylcellulose (CMC) 89 % of control | dose: 400.0 mg/kg/injection, schedule: Q01DX001 (ip), vehicle: carboxymethylcellulose (CMC) 101 % of control

Cc1c(Cl)cccc1NC(=O)NCCC(C)C
inactive: [15] 86 % of control | [20] 93 % of control | [21] 91 % of control | [16] 89 % of control | [22] 95 % of control

CCCCCC[As](=O)(O)O
inactive: dose: 1.5 mg/kg/injection, schedule: Q01DX001 (ip), vehicle: carboxymethylcellulose (CMC) 98 % of control | dose: 3.0 mg/kg/injection, schedule: Q01DX001 (ip), vehicle: carboxymethylcellulose (CMC) 93 % of control | dose: 6.0 mg/kg/injection, schedule: Q01DX001 (ip), vehicle: carboxymethylcellulose (CMC) 102 % of control

O=C(OCC1CCN2CCCC12)c1ccccc1 (configuration not stated)
inactive: dose: 12.5 mg/kg/injection, schedule: Q04DX003 (ip), vehicle: saline 104 % of control | [9] 110 % of control | [11] 102 % of control

S=C(NC1CCCCC1)NC1CC2C=CC1C2 (configuration not stated)
inactive: [17] 90 % of control | [18] 93 % of control | [19] 93 % of control

NC1=NC(c2ccc(Cl)cc2)N(c2ccc(S(=O)(=O)Nc3ncccn3)cc2)C(N)=N1 (configuration not stated)
inactive: [13] 103 % of control | dose: 200.0 mg/kg/injection, schedule: Q04DX003 (ip), vehicle: saline 96 % of control | dose: 400.0 mg/kg/injection, schedule: Q04DX003 (ip), vehicle: saline 100 % of control

CC(CO)(CO)N=Cc1ccccc1
inactive: [4] 112 % of control | [5] 112 % of control | [6] 100 % of control | [7] 100 % of control

Cc1ccc(CCn2cnc3c(=S)nc[nH]c32)cc1
inactive: [4] 98 % of control | [5] 93 % of control | [6] 104 % of control | [7] 93 % of control

Cc1cccc(C(O)C(=O)O)c1 (configuration not stated)
inactive: dose: 75.0 mg/kg/injection, schedule: Q01DX001 (ip), vehicle: acetone 94 % of control | dose: 150.0 mg/kg/injection, schedule: Q01DX001 (ip), vehicle: acetone 92 % of control

CN=NC(=O)c1cccc2c1-c1ccccc1C2=O
inactive: dose: 100.0 mg/kg/injection, schedule: Q01DX001 (ip), vehicle: other 87 % of control | dose: 200.0 mg/kg/injection, schedule: Q01DX001 (ip), vehicle: other 96 % of control | dose: 400.0 mg/kg/injection, schedule: Q01DX001 (ip), vehicle: other 93 % of control

CN(Cc1ccccc1)c1ccc2nc(N)nc(N)c2c1
inactive: dose: 25.0 mg/kg/injection, schedule: Q04DX003 (ip), vehicle: saline with Tween-80 105 % of control | dose: 50.0 mg/kg/injection, schedule: Q04DX003 (ip), vehicle: saline with Tween-80 98 % of control | [20] 108 % of control

CC(C)(O)C#CC(C)(C)O
inactive: [12] 115 % of control | [14] 110 % of control | dose: 400.0 mg/kg/injection, schedule: Q01DX009 (ip), vehicle: saline 110 % of control

CC(C)N=C(NC(C)C)c1ccc(NC(=O)Nc2ccc(NC(=O)Nc3ccc(C(=NC(C)C)NC(C)C)cc3)cc2)cc1
inactive: dose: 1.88 mg/kg/injection, schedule: Q01DX Z (ip), vehicle: carboxymethylcellulose (CMC) 101 % of control | dose: 3.75 mg/kg/injection, schedule: Q01DX Z (ip), vehicle: carboxymethylcellulose (CMC) 102 % of control | dose: 7.5 mg/kg/injection, schedule: Q01DX Z (ip), vehicle: carboxymethylcellulose (CMC) 116 % of control | dose: 15.0 mg/kg/injection, schedule: Q01DX Z (ip), vehicle: carboxymethylcellulose (CMC) 102 % of control

COc1ccc(-c2nnc3n2C(C)(C)N=C(N)N3)cc1
inactive: [20] 94 % of control | [21] 100 % of control | [22] 97 % of control

C=CCNC(=O)CCl
inactive: [8] 100 % of control | [9] 97 % of control | [10] 99 % of control | dose: 66.0 mg/kg/injection, schedule: Q04DX003 (ip), vehicle: saline 104 % of control | [12] 95 % of control | [13] 106 % of control and 108 % of control | dose: 150.0 mg/kg/injection, schedule: Q04DX003 (ip), vehicle: saline 100 % of control
